Assay results from US6846933B1, “Antimycobacterial compounds and method for making the same” (priority 2000, dated 2005).
In brackets after ≈: the same amount, converted by molar mass. Like-named read-outs stand apart in the source and are kept apart here.

Assays:
[1] = test system: M. tuberculosis strain resistant to isoniazid (ATCC 35822); assay: microbe, parasite or virus in culture; format: cell-based; conditions: Mycobacterium tuberculosis
[2] = test system: M. tuberculosis strain resistant to rifampin (ATCC 35838); assay: microbe, parasite or virus in culture; format: cell-based; conditions: Mycobacterium tuberculosis
[3] = ATCC35822, read-out: MIC INH-R (ug/ml)
[4] = ATCC35838, read-out: MIC RMP-R (ug/ml)

Row | Structure (SMILES) | MIC ([1]; ATCC35822, read-out: MIC of RMP vs INH-R (Comment, Table 9)) | MIC ([2]; ATCC35838, read-out: MIC of RMP vs RMP-R (Comment, Table 9)) | MIC [1, 3] | MIC [2, 4]
1 | CO[C@H]1/C=C/O[C@@]2(C)Oc3c(C)c(O)c4c(O)c(c(/C=N/N5CCN(C)CC5)c(O)c4c3C2=O)NC(=O)/C(C)=C\C=C\[C@H](C)[C@H](O)[C@@H](C)[C@@H](O)[C@@H](C)[C@H](OC(C)=O)[C@@H]1C [RMP, rifampin, reference compound] | 0.5 µg/mL | > 8 µg/mL | – | –
2 | CC(C)=CCCC(C)C/C=N/NC(=O)c1ccncc1 (stereo not shown) [Sample ID 102044] | – | – | 3.13 µg/mL (≈ 11.4 µM) | < 0.1 µg/mL
3 | COc1ccc(/C=N/NC(=O)c2ccncc2)cc1 [Sample ID 102866] | – | – | 3.25 µg/mL (≈ 12.7 µM) | < 0.05 µg/mL
4 | O=C(NN=C1CCCC1)c1ccncc1 [Sample ID 111298] | – | – | > 0.75 µg/mL | 0.05 µg/mL (≈ 0.246 µM)
5 | CC1C/C(=N/NC(=O)c2ccncc2)CC(C)(C)C1 (stereo not shown) [Sample ID 114353] | – | – | < 6.25 µg/mL | < 0.1 µg/mL
6 | O=C(N/N=C/c1cc(Cl)ccc1Cl)c1ccncc1 [Sample ID 117150] | – | – | > 3.25 µg/mL | < 0.05 µg/mL
7 | CCOC(=O)/C(CCc1ccccc1)=N\NC(=O)c1ccncc1 [Sample ID 132358] | – | – | > 3.2 µg/mL | 0.1 µg/mL (≈ 0.307 µM)
8 | O=C(N/N=C/C=C(c1ccccc1)c1ccccc1)c1ccncc1 [Sample ID 132532] | – | – | > 3.2 µg/mL | 0.1 µg/mL (≈ 0.305 µM)
